In US20120309798A1, “Tumour Treatment Agents and Method” (Vivolux AB, priority 2009, published 2012):
Like-named read-outs stand apart in the source and are kept apart here.

Experiments:
[1] = system: Colon cancer patient tumor cells; assay: FMCA, patient tumor samples, colon cancer; format: cell-based; settings: Homo sapiens
Source text: (§1) Cell culture. Patient tumor samples (98) and preparations (4) of normal peripheral blood mononuclear cells (PBMC), detailed in Table 1, were used to determine the activity of VLX50 and, for comparison, six other cytotoxic drugs chosen to represent different mechanistic classes.
(§2) The tumor samples were obtained by bone marrow/peripheral blood sampling, routine surgery or diagnostic biopsy. Leukemic cells and PBMCs were isolated by 1.077 g ml-1 Ficoll-Paque centrifugation (Larsson et al., 1992). Tumor tissue from solid tumor samples was minced into small pieces and tumor cells were isolated by collagenase dispersion followed by Percoll density gradient centrifugation (Csoka et al., 1994). […] Cell viability was determined by trypan blue exclusion test and the proportion of tumor cells in the preparation was judged by inspection of May-Grunvald-Giemsa stained cytospin slides (FIG. 1a). […]
(§3) Fluorometric Microculture Cytotoxicity Assay. The Fluorometric Microculture Cytotoxicity Assay, FMCA, described in detail previously (Lindhagen et al., 2008), is based on measurement of fluorescence generated from hydrolysis of fluorescein diacetate (FDA) to fluorescein by cells with intact plasma membranes. […] Quality criteria for a successful assay included a mean coefficient of variation of less than 30% in the control and a fluorescence signal in control wells of more than 5 times the blank. […]

CCRF-CEM cell line = assay: In vivo hollow fiber assay, CCRF-CEM; settings: CCRF-CEM in fibers s.c. in NMRI male mice, single dose 760 μg/mouse s.c., 6 days; P>0.05
Description: (§4) In vivo studies. Cells from two ovarian carcinoma patients and the cell line CEM were cultured inside semi-permeable polyvinylidene fluoride fibers and assessed by the hollow fiber assay (Friberg et al., 2005; Jonsson et al., 2000). The fibers were implanted subcutaneously into NMRI male mice (Scanbur, Sollentuna Sweden), which were treated with a single dose (0.76 mg/mouse) of VLX50 subcutaneously, or vehicle only (n=animals/group). Fibers were retrieved after 6 days and cell density evaluated (FIG. 3a) using the MTT (3-[4,5-dimethylthiazol-2-yl]-2,5-diphenyltetrazolium bromide)-assay (Alley et al. 1988). The method is based on the conversion of MTT to blue formazan crystals by living cells. The formazan was extracted by DMSO as previously described (Jonsson et al. 2000), and optical density (OD) read at 570 nm. Cell density for each fiber on retrieval day was expressed as net growth, defined as (OD retrieval day—OD implantation day)/OD implantation day, i.e. the percent change in cell density in the fibers during the 6 days of in vivo experiment. The animals were observed regarding behavior and weight gain throughout the experiment. Blood samples (200 μl) were obtained through the orbital plexus after anesthetization with isofluran just before euthanasia, and analyzed for hematological parameters. […]

[2] = system: NHL (Non-Hodgkins Lymphoma) patient tumor cells; assay: FMCA, patient tumor samples, NHL; format: cell-based; settings: Homo sapiens, range over n=13 samples
Source text: as §1, §2, §3

[3] = system: Ovarian carcinoma patient tumor cells (PHTC); assay: FMCA, patient tumor samples, ovarian carcinoma; format: cell-based, human
Source text: as §1
The tumor samples were obtained by bone marrow/peripheral blood sampling, routine surgery or diagnostic biopsy. Leukemic cells and PBMCs were isolated by 1.077 g ml-1 Ficoll-Paque centrifugation (Larsson et al., 1992). Tumor tissue from solid tumor samples was minced into small pieces and tumor cells were isolated by collagenase dispersion followed by Percoll density gradient centrifugation (Csoka et al., 1994). The sampling of primary tumor cells was approved by the local ethics committee at Uppsala University Hospital. Cell viability was determined by trypan blue exclusion test and the proportion of tumor cells in the preparation was judged by inspection of May-Grunvald-Giemsa stained cytospin slides (FIG. 1a). All samples used in this study contained more than 70% tumor cells.
Fluorometric Microculture Cytotoxicity Assay. The Fluorometric Microculture Cytotoxicity Assay, FMCA, described in detail previously (Lindhagen et al., 2008), is based on measurement of fluorescence generated from hydrolysis of fluorescein diacetate (FDA) to fluorescein by cells with intact plasma membranes. […] The plates were incubated for 72 h and then transferred to an integrated HTS SAIGAN Core System consisting of an ORCA robot (Beckman Coulter) with CO2 incubator (Cytomat 2C, Kendro, Sollentuna, Sweden), dispensor module (Multidrop 384, Titertek, Huntsville, Ala.), washer module (ELx 405, Bio-Tek Instruments Inc), delidding station, plate hotels, barcode reader (Beckman Coulter), liquid handler (Biomek 2000, Beckman Coulter) and a multipurpose reader (FLUOstar Optima, BMG Labtech GmbH, Offenburg, Germany) for automated FMCA. Quality criteria for a successful assay included a mean coefficient of variation of less than 30% in the control and a fluorescence signal in control wells of more than 5 times the blank. […]

[4] = system: AML (Acute Myelocytic Leukemia) patient tumor cells; assay: FMCA, patient tumor samples, AML; format: cell-based; settings: Homo sapiens
Source text: as §1, §2, §3

[5] = system: hollow fiber cultures of PHTC from ovarian carcinoma patients; assay: In vivo hollow fiber assay, PHTC ovarian carcinoma; design: species or system human; settings: two PHTC cultures in fibers s.c. in NMRI male mice, single dose 760 μg/mouse s.c., 6 days; P<0.05 and P<0.01
Description: as §4

ROS formation = assay: ROS formation; settings: in contrast to triapine
[6] = system: BNIP and Ndrg-1 expression; assay: Gene expression analysis of drug treated tumor cell cultures; format: cell-based; settings: HIF1 alfa dependent genes
Description: Mechanism of action. Mechanistic exploration was performed using gene expression analysis of drug treated tumor cell cultures to generate a drug specific signature. The breast cancer cell line MCF-7 was treated with VLX50 or vehicle (DMSO) and analyzed for gene expression using the Affymetrix U1300plus chip. […] This query signature was subsequently submitted to the GSEA and the Connectivity map databases and strong connections to hypoxia inducible factor (HIF1 alfa) and iron chelators were retrieved. […] The mechanism was confirmed by direct measurements of drug induced decrease in intracellular iron concentration (FIG. 6b).

COCCCNC(=S)N/N=C\c1ccccn1 [VLX50, N1-(3-methoxypropyl)-2-(pyridylmethylidene)-hydrazine-1-carbothioamide]
IC50 ([1]; n=6, 72 h FMCA, read-out: Median IC50): > 40 µM
IC50 ([1]; range over n=6 samples, read-out: IC50 Range): 0.49 to 40 µM
Difference in net growth between treated group and control group (CCRF-CEM cell line): did not reach statistical significance
IC50 [2]: 0.28 to 40 µM
IC50 ([3]; Homo sapiens, 72 h, n=14, 72 h FMCA, read-out: Median IC50): < 5 µM
IC50 ([3]; Homo sapiens, range over n=14 samples, read-out: IC50 Range): 0.26 to 40 µM
IC50 ([3]; n=14, 72 h FMCA, read-out: Median IC50): 3.46 µM
IC50 ([4]; n=10, 72 h FMCA, read-out: Median IC50): 5.35 µM
IC50 ([4]; range over n=10 samples, read-out: IC50 Range): 0.67 to 40 µM
Growth inhibition (net growth) compared to vehicle [5]: significant growth inhibition
ROS formation (ROS formation): does not appear to induce ROS formation
Expression of BNIP and Ndrg-1 [6]: significantly increasing
